Numbered stars: 1 amine (or outer) side, 2 acyl side, 3 side chain; on linkers, the order of the positions; unused ones are H or OH. Square brackets hold non-standard residues; d marks the D form. Peptide text beside a SMILES is read from it. * marks the point of attachment. Sta = CC(C)C[C@H](N)[C@@H](O)CC(=O)O; Hydrocinnamoyl = O=C(CCc1ccccc1)*; NHPhenethyl = c1ccc(CCN*)cc1; Isobutyryl = CC(C)C(=O)*; Piperidide = C1CCN(*)CC1; Pyrrolidide = C1CCN(*)C1; Cbz = O=C(OCc1ccccc1)*; PhAc = O=C(Cc1ccccc1)*; CO = O=C([*:1])[*:2]; NHBn = c1ccc(CN*)cc1; Alloc = C=CCOC(=O)*; NHPh = c1ccc(N*)cc1; GABA = NCCCC(=O)O; Ms = CS(=O)(=O)*; NHiPr = CC(C)N*; NHPr = CCCN*
Key:
[1] = molecular target: Plasmepsin V (Plasmodium falciparum (isolate 3D7)) (UniProt Q8I6Z5); test: Inhibition of Plasmodium falciparum plasmepsin V assessed as cleavage of wtKAHRP fluorogenic substrate at 1 uM
Cathepsin D = Cathepsin D (Homo sapiens, UniProt P07339); test: Inhibition of human cathepsin D assessed as cleavage of wtKAHRP fluorogenic substrate
Beta-secretase 1 = Beta-secretase 1 (Homo sapiens, UniProt P56817); test: Inhibition of human BACE1 assessed as cleavage of TRF substrate
Plasmepsin V = Plasmepsin V (Plasmodium falciparum (isolate 3D7), UniProt Q8I6Z5); test: Inhibition of Plasmodium falciparum plasmepsin V assessed as cleavage of wtKAHRP fluorogenic substrate
Plasmepsin V, sequence (Q8I6Z5 whole entry): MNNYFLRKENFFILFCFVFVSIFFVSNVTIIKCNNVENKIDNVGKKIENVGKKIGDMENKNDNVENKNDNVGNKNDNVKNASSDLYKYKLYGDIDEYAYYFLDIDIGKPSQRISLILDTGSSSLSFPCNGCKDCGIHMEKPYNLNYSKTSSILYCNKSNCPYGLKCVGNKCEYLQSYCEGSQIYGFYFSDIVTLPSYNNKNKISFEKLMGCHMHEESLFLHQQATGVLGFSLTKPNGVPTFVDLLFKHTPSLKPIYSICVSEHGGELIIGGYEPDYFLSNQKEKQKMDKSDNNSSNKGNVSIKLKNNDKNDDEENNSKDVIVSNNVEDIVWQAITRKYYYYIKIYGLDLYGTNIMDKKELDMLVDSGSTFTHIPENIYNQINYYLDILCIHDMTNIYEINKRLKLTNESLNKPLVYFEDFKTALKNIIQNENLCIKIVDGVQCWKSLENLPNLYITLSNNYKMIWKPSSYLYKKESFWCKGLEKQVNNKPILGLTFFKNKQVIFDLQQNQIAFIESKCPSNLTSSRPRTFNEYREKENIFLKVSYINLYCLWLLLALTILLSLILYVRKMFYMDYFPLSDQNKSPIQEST

Plasmepsin V (Plasmodium falciparum (isolate 3D7)), sequence (Q8I6Z5 whole entry, looked up): as the sequence (Q8I6Z5 whole entry) above
Beta-secretase 1, sequence (P56817 whole entry): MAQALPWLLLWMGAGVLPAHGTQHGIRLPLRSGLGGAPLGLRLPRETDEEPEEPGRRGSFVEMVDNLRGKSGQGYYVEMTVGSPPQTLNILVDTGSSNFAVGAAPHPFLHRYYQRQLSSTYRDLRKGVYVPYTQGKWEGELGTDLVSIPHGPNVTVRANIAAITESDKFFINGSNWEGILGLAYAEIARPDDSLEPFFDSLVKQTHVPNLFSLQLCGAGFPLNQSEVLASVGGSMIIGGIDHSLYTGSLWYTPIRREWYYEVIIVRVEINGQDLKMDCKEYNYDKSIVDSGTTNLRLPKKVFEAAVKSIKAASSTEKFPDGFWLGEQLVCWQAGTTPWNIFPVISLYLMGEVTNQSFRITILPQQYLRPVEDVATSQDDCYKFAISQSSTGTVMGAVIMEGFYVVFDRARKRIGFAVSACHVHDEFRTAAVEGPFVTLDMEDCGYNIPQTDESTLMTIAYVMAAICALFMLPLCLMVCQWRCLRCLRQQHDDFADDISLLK
Cathepsin D, sequence (P07339 65-162 limits assumed): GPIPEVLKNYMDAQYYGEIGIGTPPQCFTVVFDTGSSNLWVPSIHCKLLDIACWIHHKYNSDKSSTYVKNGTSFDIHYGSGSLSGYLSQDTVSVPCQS
Cathepsin D, sequence (P07339 169-412 limits assumed): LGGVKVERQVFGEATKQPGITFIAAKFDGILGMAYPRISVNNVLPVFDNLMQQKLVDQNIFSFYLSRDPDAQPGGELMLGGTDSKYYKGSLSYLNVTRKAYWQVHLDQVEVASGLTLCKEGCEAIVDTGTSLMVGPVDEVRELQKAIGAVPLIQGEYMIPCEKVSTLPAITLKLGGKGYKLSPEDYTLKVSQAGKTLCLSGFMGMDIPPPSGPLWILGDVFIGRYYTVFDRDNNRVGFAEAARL

| SMILES | inhibition [1] | IC50 (Cathepsin D) | IC50 (Beta-secretase 1) | IC50 (Plasmepsin V) |
| --- | --- | --- | --- | --- |
| CC(C)C[C@H](NC(=O)[C@H](C)NC(=O)[C@H](CCCNC(=N)N)NC(=O)OCc1ccccc1)[C@@H](O)CC(=O)NC1Cc2ccccc2C1 | 66% | > 100 µM | > 100 µM | 0.772 µM |
| CC(C)C[C@H](NC(=O)[C@H](C)NC(=O)[C@H](CCCNC(=N)N)NC(=O)OCc1ccccc1)[C@@H](O)CC(=O)NC1CCC1 | 56% |  |  |  |
| CC(C)C[C@H](NC(=O)[C@H](C)NC(=O)[C@H](CCCNC(=N)N)NC(=O)OCc1ccccc1)[C@@H](O)CC(=O)N1CCCCC1 (Cbz-Arg-Ala-[Sta]-Piperidide) | 27% |  |  |  |
| CC(C)C[C@H](NC(=O)[C@H](Cc1ccccc1)NC(=O)[C@H](CCCNC(=N)N)NC(=O)OCc1ccccc1)[C@@H](O)CC(=O)NC1CCCCC1 |  | 4.8 µM | > 100 µM | 0.23 µM |
| CC(=O)N[C@@H](CCCNC(=N)N)C(=O)N[C@@H](C)C(=O)N[C@@H](CC(C)C)[C@@H](O)CC(=O)N[C@@H](CCC(N)=O)C(N)=O (Ac-RA[Sta]Q-NH2) |  | > 100 µM | > 100 µM | 0.556 µM |
| CC(=O)N[C@@H](CCCNC(=N)N)C(=O)N[C@@H](C)C(=O)N[C@@H](CC(C)C)[C@@H](O)CC(=O)NCCCC(N)=O (Ac-RA[Sta][GABA]-NH2) |  | > 100 µM | > 100 µM | 0.865 µM |
| CC(C)C[C@H](NC(=O)[C@H](C)NC(=O)[C@H](CCCNC(=N)N)NC(=O)OCc1ccccc1)[C@@H](O)CC(=O)N(C)CCc1ccc(Cl)cc1 | 20% | > 100 µM | > 100 µM | 2.01 µM |
| CC(C)C[C@H](NC(=O)[C@H](C)NC(=O)[C@H](CCCNC(=N)N)NC(=O)NC1CCCC1)[C@@H](O)CC(=O)NCCc1ccccc1 | 41% |  |  |  |
| CC[C@H](C)[C@H](NC(=O)[C@H](C)NC(=O)[C@H](CCCNC(=N)N)NC(=O)OCc1ccccc1)[C@@H](O)CC(=O)NC1CCCCC1 |  |  |  | > 20 µM |
| CC(C)C[C@H](NC(=O)[C@H](C)NC(=O)[C@H](CCCCNC(=N)N)NC(=O)OCc1ccccc1)[C@@H](O)CC(=O)NC1CCCCC1 |  |  |  | > 20 µM |
| C[C@H](NC(=O)[C@H](CCCNC(=N)N)NC(=O)OCc1ccccc1)C(=O)N[C@@H](Cc1ccccc1)[C@@H](O)CC(=O)NC1CCCCC1 |  |  |  | > 20 µM |
| CC(C)[C@H](NC(=O)[C@H](C)NC(=O)[C@H](CCCNC(=N)N)NC(=O)OCc1ccccc1)[C@@H](O)CC(=O)NC1CCCCC1 |  |  |  | > 20 µM |
| CC(C)C[C@H](NC(=O)[C@H](C)NC(=O)[C@H](CCCNC(=N)N)NC(=O)N(C)C)[C@@H](O)CC(=O)NCCc1ccccc1 ({NMe2-CO}-Arg-Ala-[Sta]-NHPhenethyl) | 65% |  |  |  |
| CC(C)CNC(=O)C[C@H](O)[C@H](CC(C)C)NC(=O)[C@H](C)NC(=O)[C@H](CCCNC(=N)N)NC(=O)OCc1ccccc1 | 49% |  |  |  |
| CC(C)C[C@H](NC(=O)[C@H](C)NC(=O)[C@H](CCCNC(=N)N)NC(=O)OCc1ccccc1)[C@@H](O)CC(=O)N1CCc2ccccc2C1 | 45% |  |  |  |
| CC(C)C[C@H](NC(=O)[C@H](C)NC(=O)[C@H](CCCNC(=N)N)NC(=O)OCc1ccccc1)[C@@H](O)CC(=O)NC(C)C (Cbz-Arg-Ala-[Sta]-NHiPr) | 42% |  |  |  |
| CC(=O)N[C@@H](CCCNC(=N)N)C(=O)N[C@@H](C)C(=O)N[C@@H](CC(C)C)[C@@H](O)CC(=O)N[C@@H](C)C(N)=O (Ac-RA[Sta]A-NH2) |  | > 100 µM | > 100 µM | 0.613 µM |

| SMILES | inhibition [1] | IC50 (Cathepsin D) | IC50 (Beta-secretase 1) | IC50 (Plasmepsin V) |
| --- | --- | --- | --- | --- |
| CC(=O)N[C@@H](CCCNC(=N)N)C(=O)N[C@@H](C)C(=O)N[C@@H](CC(C)C)[C@@H](O)CC(=O)NCCc1ccccc1 (Ac-Arg-Ala-[Sta]-NHPhenethyl) | 42% |  |  |  |
| CC(C)C[C@H](NC(=O)[C@H](C)NC(=O)[C@H](CCCNC(=N)N)NC(=O)OCc1ccccc1)[C@@H](O)CC(=O)NCC1CCCCC1 | 63% |  |  |  |
| CC(C)C[C@H](NC(=O)[C@H](C)NC(=O)[C@H](CCCNC(=N)N)NC(=O)OCc1ccccc1)[C@@H](O)CC(=O)N(C)C (Cbz-Arg-Ala-[Sta]-NMe2) | 32% |  |  |  |
| CC(C)C[C@H](NC(=O)[C@H](C)NC(=O)[C@H](CCCNC(=N)N)NC(=O)C1CCCCC1)[C@@H](O)CC(=O)NCCc1ccccc1 | 43% |  |  |  |
| CC(C)C[C@H](NC(=O)[C@H](C)NC(=O)[C@H](CCCNC(=N)N)NC(=O)OCc1ccccc1)[C@@H](O)CC(=O)NC1CC1 | 55% |  |  |  |
| CC(C)C[C@H](NC(=O)[C@H](C)NC(=O)[C@H](CCCNC(=N)N)NS(=O)(=O)C1CC1)[C@@H](O)CC(=O)NCCc1ccccc1 | 80% |  |  |  |
| CCNC(=O)N[C@@H](CCCNC(=N)N)C(=O)N[C@@H](C)C(=O)N[C@@H](CC(C)C)[C@@H](O)CC(=O)NCCc1ccccc1 ({NHEt-CO}-Arg-Ala-[Sta]-NHPhenethyl) | 26% |  |  |  |
| CC(C)C[C@H](NC(=O)[C@H](C)NC(=O)[C@H](CCc1ccccc1)NC(=O)OCc1ccccc1)[C@@H](O)CC(=O)NC1CCCCC1 |  | 0.043 µM | > 100 µM | > 20 µM |
| CC(C)C[C@H](NC(=O)[C@H](C)NC(=O)[C@H](CCCCN)NC(=O)OCc1ccccc1)[C@@H](O)CC(=O)NC1CCCCC1 |  | > 100 µM | > 100 µM | > 20 µM |
| CC(C)C[C@H](NC(=O)[C@H](C)NC(=O)[C@H](CCCNC(=N)N)NC(=O)OCc1ccccc1)[C@@H](O)CC(=O)N1CCCC1 (Cbz-Arg-Ala-[Sta]-Pyrrolidide) | 13% |  |  |  |
| CC(C)C[C@H](NC(=O)[C@H](C)NC(=O)[C@H](CCCNC(=N)N)NS(C)(=O)=O)[C@@H](O)CC(=O)NCCc1ccccc1 (Ms-Arg-Ala-[Sta]-NHPhenethyl) | 53% |  |  |  |
| CC(C)C[C@H](NC(=O)[C@H](C)NC(=O)[C@H](CCCNC(=N)N)NC(=O)OCc1ccccc1)[C@@H](O)CC(=O)NC1CCCc2ccccc21 (stereo partly specified) | 51% |  |  |  |
| CC(C)C[C@H](NC(=O)[C@H](C)NC(=O)[C@H](CCCNC(=N)N)NC(=O)C(C)C)[C@@H](O)CC(=O)NCCc1ccccc1 (Isobutyryl-Arg-Ala-[Sta]-NHPhenethyl) | 49% |  |  |  |
| CC(C)C[C@H](NC(=O)[C@H](C)NC(=O)[C@H](CCCNC(=N)N)NC(=O)OCc1ccccc1)[C@@H](O)CC(=O)N1CCC(c2ccccc2)CC1 | 13% |  |  |  |
| CC(C)C[C@H](NC(=O)[C@H](C)NC(=O)[C@H](CCCNC(=N)N)NC(=O)OCc1ccccc1)[C@@H](O)CC(=O)NC1CCCC1 | 52% |  |  |  |
| CC(=O)N[C@@H](CCCNC(=N)N)C(=O)N[C@@H](C)C(=O)N[C@@H](CC(C)C)[C@@H](O)CC(=O)NC1CCCCC1 |  | > 100 µM | > 100 µM | 0.967 µM |

Now from value to molecule:

| inhibition [1] | IC50 (Cathepsin D) | IC50 (Beta-secretase 1) | IC50 (Plasmepsin V) | SMILES |
| --- | --- | --- | --- | --- |
|  | > 100 µM | > 100 µM | 0.348 µM | CC(C)C[C@H](NC(=O)[C@H](C)NC(=O)[C@H](CCCNC(=N)N)NC(=O)OCc1ccccc1)[C@@H](O)CC(=O)NCCc1ccc(Cl)cc1 |
| 60% | > 100 µM | > 100 µM | 0.53 µM | CC(C)C[C@H](NC(=O)[C@H](C)NC(=O)[C@H](CCCNC(=N)N)NC(=O)OCc1ccccc1)[C@@H](O)CC(=O)NCc1ccccc1 (Cbz-Arg-Ala-[Sta]-NHBn) |
| 78% |  |  |  | CC(C)C[C@H](NC(=O)[C@H](C)NC(=O)[C@H](CCCNC(=N)N)NS(=O)(=O)CCc1ccccc1)[C@@H](O)CC(=O)NCCc1ccccc1 |
| 56% | > 100 µM | > 100 µM | 0.569 µM | CC(C)C[C@H](NC(=O)[C@H](C)NC(=O)[C@H](CCCNC(=N)N)NC(=O)OCc1ccccc1)[C@@H](O)CC(=O)NC(C)c1ccccc1 (mixture of isomers) |
| 59% |  |  |  | CC(C)C[C@H](NC(=O)[C@H](C)NC(=O)[C@H](CCCNC(=N)N)NC(=O)Cc1ccccc1)[C@@H](O)CC(=O)NCCc1ccccc1 (PhAc-Arg-Ala-[Sta]-NHPhenethyl) |
| 56% |  |  |  | CCCNC(=O)C[C@H](O)[C@H](CC(C)C)NC(=O)[C@H](C)NC(=O)[C@H](CCCNC(=N)N)NC(=O)OCc1ccccc1 (Cbz-Arg-Ala-[Sta]-NHPr) |
| 35% |  |  |  | C=CCOC(=O)N[C@@H](CCCNC(=N)N)C(=O)N[C@@H](C)C(=O)N[C@@H](CC(C)C)[C@@H](O)CC(=O)NCCc1ccccc1 (Alloc-Arg-Ala-[Sta]-NHPhenethyl) |
| 53% |  |  |  | CC(C)C[C@H](NC(=O)[C@H](C)NC(=O)[C@H](CCCNC(=N)N)NC(=O)Nc1ccccc1)[C@@H](O)CC(=O)NCCc1ccccc1 ({NHPh-CO}-Arg-Ala-[Sta]-NHPhenethyl) |
| 68% |  |  |  | CC(C)C[C@H](NC(=O)[C@H](C)NC(=O)[C@H](CCCNC(=N)N)NC(=O)CCc1ccccc1)[C@@H](O)CC(=O)NCCc1ccccc1 (Hydrocinnamoyl-Arg-Ala-[Sta]-NHPhenethyl) |
| 79% | 29 µM | > 100 µM | 0.622 µM | CC(C)C[C@H](NC(=O)[C@H](C)NC(=O)[C@H](CCCNC(=N)N)NC(=O)OCc1ccccc1)[C@@H](O)CC(=O)NCCc1ccccc1 (Cbz-Arg-Ala-[Sta]-NHPhenethyl) |
| 30% |  |  |  | CC(C)C[C@H](NC(=O)[C@H](C)NC(=O)[C@H](CCCNC(=N)N)NC(=O)OCc1ccccc1)[C@@H](O)CC(=O)N(C)C(C)c1ccccc1 (stereo partly specified) |
| 75% |  |  |  | CC(C)C[C@H](NC(=O)[C@H](C)NC(=O)[C@H](CCCNC(=N)N)NC(=O)OCc1ccccc1)[C@@H](O)CC(=O)NCCCc1ccccc1 |
| 30% |  |  |  | CC(C)C[C@H](NC(=O)[C@H](C)NC(=O)[C@H](CCCNC(=N)N)NC(=O)OCc1ccccc1)[C@@H](O)CC(=O)N(C)Cc1ccccc1 |
| 47% |  |  |  | CC(C)COC(=O)N[C@@H](CCCNC(=N)N)C(=O)N[C@@H](C)C(=O)N[C@@H](CC(C)C)[C@@H](O)CC(=O)NCCc1ccccc1 |
| 65% |  |  |  | CC(C)CCNC(=O)C[C@H](O)[C@H](CC(C)C)NC(=O)[C@H](C)NC(=O)[C@H](CCCNC(=N)N)NC(=O)OCc1ccccc1 |
| 11% |  |  |  | CC(C)C[C@H](NC(=O)[C@H](C)NC(=O)[C@H](CCCNC(=N)N)NC(=O)OCc1ccccc1)[C@@H](O)CC(=O)N(C)CCc1ccccc1 |
| 32% |  |  |  | CC(C)C[C@H](NC(=O)[C@H](C)NC(=O)[C@H](CCCNC(=N)N)NC(=O)NCc1ccccc1)[C@@H](O)CC(=O)NCCc1ccccc1 ({NHBn-CO}-Arg-Ala-[Sta]-NHPhenethyl) |

From ChEMBL document CHEMBL3352063, “Transition state mimetics of the Plasmodium export element are potent inhibitors of Plasmepsin V from P. falciparum and P. vivax” (J Med Chem, 2014)
